The text below walks through data of PMC12040169 (PLOS Biology, 2025).

This data set in a line: in vitro. Particulars: human, hela cells, % viability.

As to `Cc1oc(-c2ccccc2)cc1C(=O)Nc1ccccc1N1CCCNCC1` [CBK038940T], the viability at 28.5 h, 10 µM amounted to 83.5%.
Regarding `Cc1onc(-c2ccccc2)c1C(=O)Nc1ccc(N2CCNCC2)c2ccccc12` [CBK038942T], the viability at 28.5 h, 10 µM stood at 87%.
In the case of `O=C(Nc1ccc(N2CCNCC2)c2ccccc12)c1coc2c1C(=O)CCC2` [CBK038946T] it was 81.5%; in that of `Cc1ccc(S(=O)(=O)Nc2cccc(C(=O)N3CCN(C)CC3)c2)cc1[N+](=O)[O-]` [CBK038976], 89.5%.
As to `O=C(Nc1ccc(F)cc1)c1cccc(NS(=O)(=O)c2cc(Cl)sc2Cl)c1` [CBK038980], the viability at 28.5 h, 10 µM was 95.8%.
`COc1ccc(Br)cc1S(=O)(=O)Nc1cccc(C(=O)Nc2ccc(F)cc2)c1` [CBK038981]: the viability at 28.5 h, 10 µM came to 75.4%.
The value for `COc1ccc(S(=O)(=O)Nc2cccc(C(=O)Nc3ccc(F)cc3)c2)cc1OC` [CBK038982] was 71.7%; that for `Cc1c(Cl)cccc1S(=O)(=O)Nc1cccc(C(=O)Nc2ccc(F)cc2)c1` [CBK038983] was 99.3%; that for `O=C(c1cccc(NS(=O)(=O)Cc2ccccc2)c1)N1CCOCC1` [CBK038991] was 91%.
Consider `O=C(c1cccc(NS(=O)(=O)c2cc(F)c(Br)cc2F)c1)N1CCOCC1` [CBK039007], for which the viability at 28.5 h, 10 µM came out at 86.7%.
Regarding `COc1ccc(S(=O)(=O)Nc2cccc(C(=O)N3CCOCC3)c2)cc1OC` [CBK039010], the viability at 28.5 h, 10 µM worked out at 82.7%.
The value for `CCCc1ccc(S(=O)(=O)Nc2cccc(C(=O)N3CCN(C)CC3)c2)cc1` [CBK039034] was 122%; that for `COC(=O)c1ccsc1NS(=O)(=O)c1ccc(F)cc1` [CBK039060] was 89.7%; that for `COC(=O)c1ccsc1NS(=O)(=O)c1ccc(C)c([N+](=O)[O-])c1` [CBK039061] was 92.2%.
In the case of `COC(=O)c1ccsc1NS(=O)(=O)c1cc(Cl)sc1Cl` [CBK039062] it was 88.2%; in that of `COC(=O)c1ccsc1NS(=O)(=O)c1ccc(Oc2ccccc2)cc1` [CBK039064], 108%; in that of `COC(=O)c1ccsc1NS(=O)(=O)c1cc(Br)ccc1OC` [CBK039065], 86.8%.
Consider `COC(=O)c1ccsc1NS(=O)(=O)c1cc(F)c(Br)cc1F` [CBK039068], for which the viability at 28.5 h, 10 µM came out at 96.5%.
In the case of `O=S(=O)(Nc1cccc(C(F)(F)F)c1)c1cc2c(N3CCNCC3)nccc2s1` [CBK039085C] it was 103%; in that of `Cc1cc2cc(F)ccc2n1CCCN1CCN(c2ccncc2)CC1` [CBK039119G], 116%.
In the case of `Nc1nnc(C2CCCCC2)s1` [CBK039123] it was 84.5%.
As to `O=S(=O)(Cc1cccc(C(F)(F)F)c1)c1csc2ccnc(N3CCNCC3)c12` [CBK039166C], the viability at 28.5 h, 10 µM stood at 92%.
`CC(C)N(C)CCOc1ncccc1OCCO` [CBK039171]: the viability at 28.5 h, 10 µM was found to be 104%.
In the case of `Cn1c(-c2ccc(CN3CCCC3)cc2)nc2onc(-c3ccccc3)c2c1=O` [CBK039188C], the viability at 28.5 h, 10 µM was 95.2%.
In the case of `Cc1ccc(C(=O)N2CN(C(=O)CN3CCOCC3)CC(C)(C)C2)cc1` [CBK039190] it was 105%; in that of `Nc1ccc2ccc(Cl)nc2n1` [CBK039198], 113%; in that of `COc1cccc2c3c([nH]c12)C1(CCCN(CCc2ccc(F)cc2)C1)NCC3` (stereo not shown) [CBK039251], 97.9%.
In the case of `Cc1cccc2c3c([nH]c12)C1(CCCN(Cc2ccc(F)cc2Cl)C1)NCC3` (stereo not shown) [CBK039339] it was 90%; in that of `COc1ccc2[nH]c3c(c2c1)CCNC31CCCN(Cc2ccc(OC(F)(F)F)cc2)C1` (stereo not shown) [CBK039387], 113%; in that of `Cc1ccc2c(c1)CC(=O)NC21CCN(Cc2cccc(Br)c2)CC1` [CBK039392], 94.7%.
The value for `O=CN1CCc2c([nH]c3ccccc23)C12CCCN(CCOc1ccccc1)C2` (stereo not shown) [CBK039412] was 93.3%; that for `COc1cccc2c3c([nH]c12)C1(CCN(CCOc2ccccc2)CC1)N(C=O)CC3` [CBK039423] was 112%.
For `COc1ccc2[nH]c3c(c2c1)CCN(C=O)C31CCCN(CCC#N)C1` (stereo not shown) [CBK039445], the viability at 28.5 h, 10 µM turned out to be 107%.
In the case of `COc1ccc2[nH]c3c(c2c1)CCNC31CCN(CC(=O)C(C)(C)C)CC1` [CBK039471] it was 98.1%; in that of `CC(C)(C)C(=O)CN1CCC2(CC1)NCCc1c2[nH]c2cc(F)ccc12` [CBK039568], 90.2%.
In the case of `O=CN1CCc2c([nH]c3ccccc23)C12CCN(CCCN1C(=O)C3CCCCC3C1=O)C2` (stereo not shown) [CBK039592] it was 114%; in that of `O=CN1CCc2c([nH]c3cc(F)ccc23)C12CCN(CCc1ccc3c(c1)OCO3)CC2` [CBK039614], 86.5%.
The value for `COc1ccc2[nH]c3c(c2c1)CCN(C(C)=O)C31CCN(CCOc2ccccc2)C1` (stereo not shown) [CBK039626] was 85.5%; that for `COc1cccc(CN2CCCC3(C2)c2[nH]c4ccccc4c2CCN3C(C)=O)c1` (stereo not shown) [CBK039634] was 86.4%; that for `CC(=O)N1CCc2c([nH]c3c(C)cccc23)C12CCN(CCOc1ccccc1)C2` (stereo not shown) [CBK039646] was 85.4%.
Consider `Fc1ccc2c3c([nH]c2c1)C1(CCN(Cc2cc(F)c(F)c(F)c2)CC1)NCC3` [CBK039688], for which the viability at 28.5 h, 10 µM amounted to 108%.
On to `COc1cccc2c3c([nH]c12)C1(CCN(CCCC#N)CC1)N(C(C)=O)CC3` [CBK039722], for which the viability at 28.5 h, 10 µM is 99.6%.
For `COc1ccc2[nH]c3c(c2c1)CCNC31CCN(Cc2ccc(S(C)(=O)=O)cc2)CC1` [CBK039753], the viability at 28.5 h, 10 µM was 88.8%.
The value for `CC(=O)N1CCc2c([nH]c3ccccc23)C12CCN(CCc1ccccc1)CC2` [CBK039757] was 78.8%; that for `COc1cccc(CN2CCCC3(C2)NCCc2c3[nH]c3cc(F)ccc23)c1` (stereo not shown) [CBK039786] was 87.5%; that for `N#CCCN1CCC2(CC1)NCCc1c2[nH]c2ccccc12` [CBK039788] was 89%.
The value for `COC(=O)c1cccc(CN2CCC3(CC2)NC(=O)Cc2ccccc23)c1` [CBK039807] was 101%; that for `CCN1CCC2(CC1)NC(=O)Cc1ccccc12` [CBK039810] was 96%; that for `N#CCCCN1CCCC2(C1)NCCc1c2[nH]c2cc(F)ccc12` (stereo not shown) [CBK039826] was 117%.
As to `COc1ccc2c(c1)CC(=O)NC21CCN(Cc2c(F)cccc2F)CC1` [CBK039835], the viability at 28.5 h, 10 µM came out at 93.8%.
In the case of `CCN1CCC2(CC1)NC(=O)Cc1cc(OC)c(OC)c(OC)c12` [CBK039868] it was 97.6%.
The value for `O=C1Cc2c(ccc3ccccc23)C2(CCN(CCCC(F)(F)F)CC2)N1` [CBK039912] was 89.6%; that for `Cc1ccc2[nH]c3c(c2c1)CCOC31CCN(Cc2ccccc2-c2ccccc2)CC1` [CBK039915] was 89.1%.
The value for `COc1cc2c(cc1OC)C1(CCN(CCc3c[nH]c4ccccc34)CC1)NC(=O)C2` [CBK039992] was 99.3%.
For the molecule `COc1cc2c(c(OC)c1OC)C1(CCN(Cc3ccc(S(C)(=O)=O)cc3)CC1)NC(=O)C2` [CBK040014], the viability at 28.5 h, 10 µM worked out at 108%.
The value for `N#CCCN1CCCC2(C1)NCCc1c2[nH]c2ccccc12` (stereo not shown) [CBK040031] was 97%; that for `N#CCCCN1CCC2(CC1)OCCc1c2[nH]c2ccc(Br)cc12` [CBK040105] was 88.4%; that for `COc1cccc2c3c([nH]c12)C1(CCCN(C/C=C\c2ccccc2)C1)NCC3` (stereo not shown) [CBK040138] was 98.3%.
The value for `Fc1ccc2[nH]c3c(c2c1)CCOC31CCN(C/C=C\c2ccccc2)CC1` [CBK040141] was 70.1%; that for `c1csc(CCN2CCC3(C2)NCCc2c3[nH]c3ccccc23)c1` (stereo not shown) [CBK040196] was 111%.
In the case of `c1ccc(COCCCN2CCC3(CC2)OCCc2c3[nH]c3ccccc23)cc1` [CBK040208] it was 84.8%; in that of `Cc1ccc2c(c1)C1(CCN(CC3CC3)CC1)NC(=O)C2` [CBK040217], 94.8%.
In the case of `COc1cccc(CN2CCC3(CC2)NC(=O)Cc2ccc(C)cc23)c1` [CBK040219], the viability at 28.5 h, 10 µM came to 88.5%.
On to `Cc1ccc2[nH]c3c(c2c1)CCOC31CCN(CCOc2cccc3c2CCCC3=O)CC1` [CBK040230], for which the viability at 28.5 h, 10 µM came to 83.3%.
In the case of `COc1ccccc1C(=O)CN1CCC2(CC1)OCCc1c2[nH]c2ccc(F)cc12` [CBK040238] it was 97.6%; in that of `COc1ccccc1CCCN1CCC2(C1)NCCc1c2[nH]c2ccccc12` (stereo not shown) [CBK040257], 91%.
In the case of `Cc1cccc2c3c([nH]c12)C1(CCCN(C/C=C\c2ccccc2)C1)N(C=O)CC3` (stereo not shown) [CBK040265] it was 92.4%; in that of `O=CN1CCc2c([nH]c3cc(F)ccc23)C12CCN(CCc1cccs1)CC2` [CBK040312], 81.2%.
In the case of `O=CN1CCc2c([nH]c3ccccc23)C12CCN(CC1CC1)CC2` [CBK040315] it was 91.8%; in that of `COc1ccc2[nH]c3c(c2c1)CCN(C=O)C31CCN(Cc2cccc(Cl)c2)C1` (stereo not shown) [CBK040376], 97.3%.
In the case of `CC(=O)N1CCc2c([nH]c3c(C)cccc23)C12CCN(C/C=C\c1ccccc1)C2` (stereo not shown) [CBK040414], the viability at 28.5 h, 10 µM stood at 90.8%.
The value for `COc1cccc(CN2CCC3(CC2)c2[nH]c4ccc(OCc5ccccc5)cc4c2CCN3C=O)c1` [CBK040462] was 101%; that for `c1ccc(COc2ccc3[nH]c4c(c3c2)CCNC42CCCN(CC3CC3)C2)cc1` (stereo not shown) [CBK040619] was 100%.
The value for `Brc1ccc2[nH]c3c(c2c1)CCOC31CCN(CC2CCCCO2)CC1` (stereo not shown) [CBK040648] was 87.8%; that for `Cn1c2c(c3ccccc31)CCOC21CCN(CC2CCCCO2)CC1` (stereo not shown) [CBK040649] was 87.9%; that for `C[C@@H]1CNCCN1c1nccnc1OCCOc1cccnc1OCCN` [CBK040757T] was 88.8%.

In general, viability refers to a read-out of living cells in per cent, often relative to untreated cells.
